Tests used:
H460 cells = experiment: Inhibition of KRas-mediated phosphorylation of ERK (Cisbio HTRF pERK), H460 cells; assay type: cell-based; conditions: Homo sapiens, NCI-H460, single point at 100 nM, 3 hrs compound incubation
ASPC1 cells = experiment: Inhibition of KRas-mediated phosphorylation of ERK (Cisbio HTRF pERK), ASPC1 cells; assay type: cell-based; conditions: Homo sapiens, AsPC-1 cells; for IC50: ASPC1, 3 h, 3 hr compound incubation; for inhibition at 0.1 µM: ASPC1, single point at 100 nM, 3 hrs compound incubation
H358 cells = experiment: Inhibition of KRas-mediated phosphorylation of ERK (Cisbio HTRF pERK), H358 cells; assay type: cell-based; conditions: Homo sapiens; for inhibition at 0.1 µM: NCI-H358, single point at 100 nM, 3 hrs compound incubation; for IC50: NCI-H358, 3 h, 3 hr compound incubation
KRas WT = KRas WT (Homo sapiens, UniProt P01116); experiment: KRas binding assay (TR-FRET displacement), KRas WT; conditions: for IC50: TR-FRET displacement
Sequence of KRas WT (P01116 1-169 isoform P01116-2): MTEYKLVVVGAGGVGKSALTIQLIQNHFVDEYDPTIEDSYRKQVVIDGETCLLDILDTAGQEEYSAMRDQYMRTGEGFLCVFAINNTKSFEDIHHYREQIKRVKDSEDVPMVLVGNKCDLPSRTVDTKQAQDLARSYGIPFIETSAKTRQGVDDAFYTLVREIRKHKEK

H727 cells = experiment: Inhibition of KRas-mediated phosphorylation of ERK (Cisbio HTRF pERK), H727 cells; assay type: cell-based; conditions: Homo sapiens; for IC50: NCI-H727, 3 h, 3 hr compound incubation; for inhibition at 0.1 µM: NCI-H727, single point at 100 nM, 3 hrs compound incubation
KRas Q61H = KRas Q61H (Homo sapiens, UniProt P01116, Q61H); experiment: KRas binding assay (TR-FRET displacement), KRas Q61H; conditions: for IC50: TR-FRET displacement
Sequence of KRas Q61H (P01116 1-169 isoform P01116-2 Q61H): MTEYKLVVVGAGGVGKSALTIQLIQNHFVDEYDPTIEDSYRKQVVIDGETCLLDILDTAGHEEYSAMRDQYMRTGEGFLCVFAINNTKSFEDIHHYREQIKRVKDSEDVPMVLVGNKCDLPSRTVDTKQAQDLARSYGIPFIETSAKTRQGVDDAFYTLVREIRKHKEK

KRas G12V = KRas G12V (Homo sapiens, UniProt P01116, G12V); experiment: biochemical; conditions: Binding to KRas (IC50 nM) G12V, TR-FRET displacement, KRas G12V
Sequence of KRas G12V (P01116 1-169 isoform P01116-2 G12V): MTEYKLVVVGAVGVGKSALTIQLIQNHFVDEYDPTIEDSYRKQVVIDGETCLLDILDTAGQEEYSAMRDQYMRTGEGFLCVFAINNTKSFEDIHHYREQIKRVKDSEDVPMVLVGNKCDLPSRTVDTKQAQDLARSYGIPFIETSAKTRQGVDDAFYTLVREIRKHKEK

KRas G12C = KRas G12C (Homo sapiens, UniProt P01116, G12C); assay type: binding; conditions: for IC50: TR-FRET displacement, read-out: Binding to KRas (IC50 nM) G12C
Sequence of KRas G12C (P01116 1-169 isoform P01116-2 G12C): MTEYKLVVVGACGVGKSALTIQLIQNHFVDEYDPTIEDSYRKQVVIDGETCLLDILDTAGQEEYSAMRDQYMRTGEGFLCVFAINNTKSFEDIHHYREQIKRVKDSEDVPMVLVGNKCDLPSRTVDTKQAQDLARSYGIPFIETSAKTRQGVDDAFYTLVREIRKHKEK

HCT116 cells = experiment: Inhibition of KRas-mediated phosphorylation of ERK (Cisbio HTRF pERK), HCT116 cells; assay type: cell-based; conditions: Homo sapiens, HCT-116, single point at 100 nM, 3 hrs compound incubation
KRas G13D = KRas G13D (Homo sapiens, UniProt P01116, G13D); assay type: binding; conditions: for IC50: TR-FRET displacement, read-out: Binding to KRas (IC50 nM) G13D
Sequence of KRas G13D (P01116 1-169 isoform P01116-2 G13D): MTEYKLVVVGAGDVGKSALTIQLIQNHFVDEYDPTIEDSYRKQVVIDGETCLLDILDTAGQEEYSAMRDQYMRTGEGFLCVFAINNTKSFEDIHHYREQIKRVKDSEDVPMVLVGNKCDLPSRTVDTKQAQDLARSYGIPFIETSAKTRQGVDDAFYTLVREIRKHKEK

A549 cells = experiment: Inhibition of KRas-mediated phosphorylation of ERK (Cisbio HTRF pERK), A549 cells; assay type: cell-based; conditions: Homo sapiens; for inhibition at 0.1 µM: single point at 100 nM, 3 hrs compound incubation; for IC50: A549, 3 h, 3 hr compound incubation
KRas G12A = KRas G12A (Homo sapiens, UniProt P01116, G12A); assay type: binding; conditions: for IC50: TR-FRET displacement, read-out: Binding to KRas (IC50 nM) G12A
Sequence of KRas G12A (P01116 1-169 isoform P01116-2 G12A): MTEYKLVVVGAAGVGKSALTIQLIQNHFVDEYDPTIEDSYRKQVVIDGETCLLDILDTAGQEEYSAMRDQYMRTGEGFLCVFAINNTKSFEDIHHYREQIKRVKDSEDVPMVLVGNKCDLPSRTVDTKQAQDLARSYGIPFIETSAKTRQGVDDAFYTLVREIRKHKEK

KRas G12S = KRas G12S (Homo sapiens, UniProt P01116, G12S); assay type: binding; conditions: for IC50: TR-FRET displacement, read-out: Binding to KRas (IC50 nM) G12S
Sequence of KRas G12S (P01116 1-169 isoform P01116-2 G12S): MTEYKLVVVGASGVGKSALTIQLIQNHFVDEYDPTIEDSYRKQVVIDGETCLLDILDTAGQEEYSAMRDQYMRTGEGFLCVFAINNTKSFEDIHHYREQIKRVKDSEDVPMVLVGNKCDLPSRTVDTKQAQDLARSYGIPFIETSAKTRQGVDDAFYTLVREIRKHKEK

KRas G12R = KRas G12R (Homo sapiens, UniProt P01116, G12R); experiment: biochemical; conditions: Binding to KRas (IC50 nM) G12R, TR-FRET displacement, KRas G12R
Sequence of KRas G12R (P01116 1-169 isoform P01116-2 G12R): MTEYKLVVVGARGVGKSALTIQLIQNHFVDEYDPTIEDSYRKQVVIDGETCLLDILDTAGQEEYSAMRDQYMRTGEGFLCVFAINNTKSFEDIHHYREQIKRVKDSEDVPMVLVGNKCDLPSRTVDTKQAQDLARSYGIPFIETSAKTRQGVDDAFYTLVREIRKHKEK

KRas G12D = KRas G12D (Homo sapiens, UniProt P01116, G12D); experiment: biochemical; conditions: Binding to KRas (IC50 nM) G12D, TR-FRET displacement, KRas G12D
Sequence of KRas G12D (P01116 1-169 isoform P01116-2 G12D): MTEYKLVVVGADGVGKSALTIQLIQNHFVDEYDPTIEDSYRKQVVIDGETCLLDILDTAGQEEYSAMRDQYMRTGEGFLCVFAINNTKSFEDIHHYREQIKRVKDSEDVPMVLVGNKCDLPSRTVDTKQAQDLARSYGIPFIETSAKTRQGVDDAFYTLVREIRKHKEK

MKN1 cells = experiment: Inhibition of KRas-mediated phosphorylation of ERK (Cisbio HTRF pERK), MKN1 cells; assay type: cell-based; conditions: Homo sapiens
Description: (§1) Inhibition of KRas Phosphorylation of ERK (HTRF) by Exemplary Compounds of Formula (I) Cisbio HTRF Advanced pERK Assay Catalog #64AERPEH • Cells: MKN1, PSN1 • Procedure: • Day 1: Seed 6,000 cells/well -25 µl/well in 384-well white solid bottom plate; RPM1_10% FBS.

PSN1 cells = experiment: Inhibition of KRas-mediated phosphorylation of ERK (Cisbio HTRF pERK), PSN1 cells; assay type: cell-based; conditions: Homo sapiens, PSN1, 3 h, 3 hour compound incubation, Cisbio pERK HTRF
Description: as §1

[1] = MKN-1, 3 hour compound incubation, Cisbio pERK HTRF
[2] = MKN-1, 3 hr compound incubation

IC50 (ASPC1 cells; Cisbio pERK HTRF) [nM]	IC50 (H727 cells; Cisbio pERK HTRF) [nM]	IC50 (KRas G12V) [nM]	IC50 (KRas G12R) [nM]	IC50 (KRas G12D) [nM]	IC50 (MKN1 cells; [1]) [nM]	IC50 (PSN1 cells) [nM]	IC50 (KRas WT) [nM]	IC50 (KRas G12C) [nM]	IC50 (KRas G12S) [nM]	SMILES	inhibition at 0.1 µM (H460 cells) [%]	inhibition at 0.1 µM (H358 cells) [%]	inhibition at 0.1 µM (HCT116 cells) [%]	inhibition at 0.1 µM (A549 cells) [%]	further results
54	180	3	3	3						CCc1c(F)ccc2cc(O)cc(N3CCc4c(nc(OC[C@@]56CCCN5C[C@H](F)C6)nc4N4CCCc5nc(C(=O)N(C)C)sc5C4)C3)c12 [Example 304, 5-(7-(8-ethyl-7-fluoro-3-hydroxynaphthalen-1-yl)-2-(((2R,7aS)-2-fluorohexahydro-1H-pyrrolizin-7a-yl)methoxy)-5,6,7,8-tetrahydropyrido[3,4-d]pyrimidin-4-yl)-N,N-dimethyl-5,6,7,8-tetrahydro-4H-thiazolo[5,4-c]azepine-2-carboxamide]	25	43	-15	33	inhibition at 0.01 µM (KRas WT; single point, 10 nM compound): 70%; inhibition at 0.01 µM (KRas Q61H; single point, 10 nM compound): 73%; inhibition at 0.01 µM (KRas G12C; single point, 10 nM compound, read-out: Binding to KRas (% inhibition at 10 nM) G12C): 83%; inhibition at 0.01 µM (KRas G13D; single point, 10 nM compound, read-out: Binding to KRas (% inhibition at 10 nM) G13D): 72%; inhibition at 0.01 µM (KRas G12A; single point, 10 nM compound, read-out: Binding to KRas (% inhibition at 10 nM) G12A): 63%; inhibition at 0.01 µM (KRas G12S; single point, 10 nM compound, read-out: Binding to KRas (% inhibition at 10 nM) G12S): 77%
> 10000	1670	4	7	18	217	> 10000				CCc1c(F)ccc2cc(O)cc(N3CCc4c(nc(OC[C@@]56CCCN5C[C@H](F)C6)nc4NCC4CNS(=O)(=O)N4)C3)c12 (stereo partly drawn) [Example 410, 3-(((7-(8-ethyl-7-fluoro-3-hydroxynaphthalen-1-yl)-2-(((2R,7aS)-2-fluorohexahydro-1H-pyrrolizin-7a-yl)methoxy)-5,6,7,8-tetrahydropyrido[3,4-d]pyrimidin-4-yl)amino)methyl)-1,2,5-thiadiazolidine 1,1-dioxide]					
3000	935	3	11	8	28.4	7540				CCc1c(F)ccc2cc(O)cc(N3CCc4c(nc(OC[C@@]56CCCN5C[C@H](F)C6)nc4NCC4CC(=O)NC4=O)C3)c12 (stereo partly drawn) [Example 414, 3-(((7-(8-ethyl-7-fluoro-3-hydroxynaphthalen-1-yl)-2-(((2R,7aS)-2-fluorotetrahydro-1H-pyrrolizin-7a(5H)-yl)methoxy)-5,6,7,8-tetrahydropyrido[3,4-d]pyrimidin-4-yl)amino)methyl)pyrrolidine-2,5-dione]					
1410	1100	2	< 2	6	158	> 10000				CCc1c(F)ccc2cc(O)cc(N3CCc4c(nc(OCC5(CN(C)C)CC5)nc4N4C[C@@H]5C[C@H](C4)[C@H](O)C5)C3)c12 [Example 431, (1R,5R,6R)-3-(2-((1-((dimethylamino)methyl)cyclopropyl)methoxy)-7-(8-ethyl-7-fluoro-3-hydroxynaphthalen-1-yl)-5,6,7,8-tetrahydropyrido[3,4-d]pyrimidin-4-yl)-3-azabicyclo[3.2.1]octan-6-ol]					
1760	2950	8	17	7			10	8	10	CC1(O)COCCN(c2nc(OCC34CCCN3CCC4)nc3c2CCN(c2cc(O)cc(Cl)c2C2CC2)C3)C1 (centres unmarked) [Example 436, 4-(7-(3-chloro-2-cyclopropyl-5-hydroxyphenyl)-2-((tetrahydro-1H-pyrrolizin-7a(5H)-yl)methoxy)-5,6,7,8-tetrahydropyrido[3,4-d]pyrimidin-4-yl)-6-methyl-1,4-oxazepan-6-ol]	-4	10	5	3	inhibition at 0.1 µM (ASPC1 cells): -12%; inhibition at 0.1 µM (H727 cells): 12%; IC50 (KRas Q61H): 10 nM; IC50 (KRas G13D): 10 nM; IC50 (KRas G12A): 11 nM
> 10000	> 10000	7	7	16			9	6	9	Cc1cc2[nH]ncc2c(N2CCc3c(nc(OCC4(CN(C)C)CC4)nc3N3CCC[C@]4(C3)NC(=O)NC4=O)C2)c1C [Example 462, (R)-7-(7-(5,6-dimethyl-1H-indazol-4-yl)-2-((1-((dimethylamino)methyl)cyclopropyl)methoxy)-5,6,7,8-tetrahydropyrido[3,4-d]pyrimidin-4-yl)-1,3,7-triazaspiro[4.5]decane-2,4-dione]	9	1	3	8	inhibition at 0.1 µM (ASPC1 cells): -6%; inhibition at 0.1 µM (H727 cells): -8%; IC50 (KRas Q61H): 10 nM; IC50 (KRas G13D): 9 nM; IC50 (KRas G12A): 10 nM
11	19	< 2	< 2	< 2	10.7	3230				CCc1c(F)ccc2cc(O)cc(N3CCc4c(nc(OC[C@@]56CCCN5C[C@H](F)C6)nc4N4CCCn5nc(C(=O)N6CC7CN(C8COC8)CC7C6)cc5C4)C3)c12 (some centres unmarked) [Example 503]					
27	92	< 2	< 2	3	6	949				O=S1(=O)CCC2(CCCN(c3nc(OC[C@@]45CCCN4C[C@H](F)C5)nc4c3CCN(c3cc(O)cc5cccc(Cl)c35)C4)C2)N1 (stereo partly drawn) [Example 513, 7-(7-(8-chloro-3-hydroxynaphthalen-1-yl)-2-(((2R,7aS)-2-fluorohexahydro-1H-pyrrolizin-7a-yl)methoxy)-5,6,7,8-tetrahydropyrido[3,4-d]pyrimidin-4-yl)-2-thia-1,7-diazaspiro[4.5]decane 2,2-dioxide]					
		< 2		3			< 2	< 2	< 2	C=C1CN2CCCC2(COc2nc3c(c(N4CCCC5(CC(O)C5)C4)n2)CCN(c2cc(O)cc4ccc(F)c(CC)c24)C3)C1 (centres unmarked) [Example 660, 6-(7-(8-ethyl-7-fluoro-3-hydroxynaphthalen-1-yl)-2-((2-methylenetetrahydro-1H-pyrrolizin-7a(5H)-yl)methoxy)-5,6,7,8-tetrahydropyrido[3,4-d]pyrimidin-4-yl)-6-azaspiro[3.5]nonan-2-ol]					IC50 (MKN1 cells; [2]): 28.2 nM; IC50 (ASPC1 cells): 261 nM; IC50 (H358 cells): 25 nM; IC50 (H727 cells): 204 nM; IC50 (A549 cells): 131 nM
		33		143			25	32	21	C=C1CN2CCCC2(COc2nc3c(c(N4CC5CC(O)CC4C5)n2)CCN(c2cc(O)cc4ccc(F)c(CC)c24)C3)C1 (centres unmarked) [Example 661, 6-(7-(8-ethyl-7-fluoro-3-hydroxynaphthalen-1-yl)-2-((2-methylenetetrahydro-1H-pyrrolizin-7a(5H)-yl)methoxy)-5,6,7,8-tetrahydropyrido[3,4-d]pyrimidin-4-yl)-6-azabicyclo[3.2.1]octan-3-ol]					IC50 (MKN1 cells; [2]): 1380 nM; IC50 (ASPC1 cells): > 10000 nM; IC50 (H358 cells): 864 nM; IC50 (H727 cells): 4780 nM; IC50 (A549 cells): 3800 nM

Source: patent US20250368649A1, “TETRAHYDROPYRIDOPYRIMIDINE PAN-KRAS INHIBITORS” (Mirati Therapeutics, Inc., priority 2022, published 2025)
